Results reported in paper PMC8838787, “The Antiproliferative and Apoptotic Effects of a Novel Quinazoline Carrying Substituted-Sulfonamides: In Vitro and Molecular Docking Study” (Molecules, 2022).

Tests used:
A549 (lung) cancer cells = experiment: MTT cell viability assay, A549; format: cell-based; settings: average ± SD (n = 3)
Description: (§1) Compounds 4a–n were subjected to the cytotoxicity screening of the cell lines MCF-7 (breast), LoVo (colon), HepG2 (liver) and A549 (lung) carcinoma cells as well as HUVEC normal cell lines. The MTT assay was employed to assess cytotoxicity after 48 h of treatment with different concentrations of each compound and doxorubicin was used as a reference drug. The results were presented in Table 1 as growth inhibitory concentration (IC50 values).
(§2) Cell viability was determined using 3-(4,5-dimethylthiazol-2-yl)-2,5-diphenyl tetrazolium bromide (MTT) assay as stated previously. In brief, A549 (lung), HepG2 (liver), LoVo (colon), MCF-7 (breast) cancer cells as well as normal cells (HUVEC) were seeded in 96-well plates (10^5 per well) and compounds were added in a different final concentration. All cells were treated for 48 h, and then 10μL of MTT reagent (5 mg/mL) was added to each well and further incubated for 4 h. Thereafter, 0.1 mL of acidified isopropanol was added to solubilize formazan product and the developed color was measured at 570 nm in Microplate ELISA Reader (BioTek, Elx-800, Winooski, VT, USA). The IC50 values (concentration required for 50% inhibition of cell viability) were calculated using dose response curve. Cell viability was calculated as = (Ab Treated/Ab Control) × 100.
(§3) The A549, HepG2, LoVo and MCF-7 cancer cell lines were obtained from the German Collection of Microorganisms and Cell Cultures (DSMZ) (Braunschweig, Germany). For Human umbilical vein endothelial cells (HUVEC cells), it was purchased from American Type Culture Collection (16549; Cat no. PCS-100-010; ATTCC, Manassas, VA, USA).

[1] = tested on: HepG2 (liver) cancer cells; experiment: MTT cell viability assay, HepG2; format: cell-based; settings: Homo sapiens, 48 h, average ± SD (n = 3)
Description: as §1, §2, §3

[2] = tested on: MCF-7 (breast) cancer cells; experiment: MTT cell viability assay, MCF-7; format: cell-based, human; settings: Homo sapiens, MCF7, 48 h, average ± SD (n = 3)
Description: as §1, §2, §3

MCF-7 cells = experiment: Annexin V-FITC/PI apoptosis detection; format: cell-based, human; settings: 24 h, mean ± SD; for early apoptotic cells: untreated 1.05 ± 0.07%; for late apoptotic cells: control 1.75 ± 0.07%
From the text: In addition to cell cycle arrest, apoptosis is another important anticancer process that inhibits cancer cell proliferation. Therefore, we further used a double labeling staining with Annexin V-FITC and PI to investigate apoptotic cell death. Phosphatidylserine exposure on the cell surface is a hallmark of early and late apoptotic cells, which can be easily identified with Annexin V-FITC [27].
Apoptotic cells were detected using Annexin V-FITC/PI staining protocol (BioLegend, San Diego, CA, USA) according to the manufacturer’s recommendations. Briefly, MCF-7 cells were incubated for 24 h with the different doses of promising compounds 4d and 4f. The cells were then harvested, washed twice with cold PBS and re-suspended with 1× Annexin V binding buffer (100 µL). Thereafter, cells were transferred into flow cytometry tube and stained with 5 μL of Annexin V- FITC and 5 μL PI for 15 min at room temperature in the dark. The cells were processed for apoptosis using a FACS Scan Flow Cytometer (Cytomics FC 500; Beckman Coulter, Brea, CA, USA) and analyzed using CXP software V. 3.0.

caspase 7 = experiment: Western blot, caspase 7 protein; format: cell-based, human; settings: 24 h, in comparison to the control
From the text: (§4) We next used reverse transcription polymerase chain reaction (RT-PCR) and Western blot analysis to look at Bax (proapoptotic), Bcl-2 (antiapoptotic) and caspase 7 (executioner caspase) expression at gene and protein level as an additional marker of apoptosis occurrence. In fact, apoptotic cell death is mostly directed by the levels of Bcl-2 family, whether they are pro-apoptotic or antiapoptotic and targeting these molecules as a therapeutic strategy is continuously under development. As predicted, we observed an upregulation in the expression of Bax in MCF-7 treated cells to (1.7-, 2- and 2.4-fold) with compound 4d and to (1.2-, 1.4- and 1.6-fold) with compound 4f at (1.25, 2.5 and 5 µM) respectively (Figure 6). […] This shifting in Bax to Bcl-2 ratio usually started caspases activation which plays a critical role in apoptosis execution. Among all caspases, caspase 7 is considered as one of the most crucial executioner caspases that mediate cell death, and its expression strongly correlates with apoptosis stimulation.
MCF-7 cells were plated in six well plates at the density of 0.5 × 10^6 and kept for adherence for overnight. On the next day, complete media was replaced with the fresh one and treated the cells with compounds 4d and 4f for 24 h at various concentrations. After 24 h of treatment, cells were harvested and washed twice with 1× PBS before adding the lysis buffer (20 mM Tris pH 7.5, 150 mM Nacl, 1 mM Na2EDTA, 1 mM EGTA, 1% Triton X100, 1 μg/mL Leupeptin and 100 µM phenylmethylsulfonyl fluoride—PMSF) and kept it for 1 h on ice, with intermittent vortex mixing every 10 min. The samples were centrifuged at 13,000 rpm at 4 °C for 15 min and then the supernatants were transferred into new tubes. Total protein was measured by using Bio-Rad Bradford kit and then 35 µg of the total protein was run on a 12% SDS-PAGE and transferred to a nitrocellulose membrane. The membrane was blocked with 5% BSA in TBST (150 mM Nacl, 20 mM Tris base and 0.1% Tween 20) for 2 h at room temperature and then washed three times with TBST buffer. Then the membrane was incubated with the desired antibodies (p53, Bcl-2, Bax, caspase7 and β-actin) (1:200, Santa Cruz Biotecnology, Inc., Dallas, TX, USA) and kept on a rocker at 4 °C overnight. On the next day, the membrane was washed three times with TBST buffer and then incubated with horseradish peroxidase-conjugated secondary antibody (1:3000) for 1 h at room temperature. After incubation, membranes were washed three times with TBST buffer and then were ready for immunodetection. For immunodetection, membranes were incubated with ECL Western blotting detecting reagents (Amersaham Pharmacia Biotech Inc., Zurich, Switzerland) and then bands were obtained by exposing to X-ray films (Amersham).

Bax = experiment: Western blot, Bax protein; format: cell-based, human; settings: MCF-7, 1.25, 2.5 and 5 μM, 24 h, vs control cells
From the text: as §4, with “Among all caspases, caspase 7 is considered as one of the most crucial executioner caspases that mediate cell death, and its expression strongly correlates with apoptosis stimulation.” left out
(§5) MCF-7 cells were plated in six well plates at the density of 0.5 × 10^6 and kept for adherence for overnight. […] Total protein was measured by using Bio-Rad Bradford kit and then 35 µg of the total protein was run on a 12% SDS-PAGE and transferred to a nitrocellulose membrane. […] After incubation, membranes were washed three times with TBST buffer and then were ready for immunodetection. […]

Bcl-2 = experiment: Western blot, Bcl-2 protein; format: cell-based, human; settings: MCF-7, 1.25, 2.5 and 5 μM, 24 h, vs control cells
From the text: as §4, with “Among all caspases, caspase 7 is considered as one of the most crucial executioner caspases that mediate cell death, and its expression strongly correlates with apoptosis stimulation.” left out
as §5

| IC50 (A549 (lung) cancer cells; 48 h) [µM] | IC50 (A549 (lung) cancer cells; Homo sapiens, A549, 48 h) [µM] | IC50 [1] [µM] | IC50 [2] [µM] | Compound | early apoptotic cells (MCF-7 cells; 1.25 µM) [%] | early apoptotic cells (MCF-7 cells; 2.5 µM) [%] | early apoptotic cells (MCF-7 cells; 5 µM) [%] | caspase 7 protein expression (Western blot) (caspase 7; MCF-7, 1.25 μM) [fold] | caspase 7 protein expression (Western blot) (caspase 7; MCF-7, 2.5 μM) [fold] | caspase 7 protein expression (Western blot) (caspase 7; MCF-7, 5 μM) [fold] | expression of Bax protein (Western blot, in words) (Bax) | expression of Bcl-2 protein (Western blot, in words) (Bcl-2) | late apoptotic cells (MCF-7 cells; 1.25 µM) [%] | late apoptotic cells (MCF-7 cells; 2.5 µM) [%] | late apoptotic cells (MCF-7 cells; 10 µM) [%] |
| --- | --- | --- | --- | --- | --- | --- | --- | --- | --- | --- | --- | --- | --- | --- | --- |
| 6.6 ± 0.22 | 5.6 | 9 ± 0.3 | 2.5 ± 0.2 | COc1cccc2c(=O)n(-c3ccc(S(=O)(=O)NCC(=O)Nc4ccc(C)cc4)cc3)c(SCC(=O)Nc3ccc(C)cc3)nc12 [Compound 4d] | 44.45 ± 1.06 | 67.55 ± 1.34 | 83.75 ± 2.19 | 3 | 3.3 | 3.9 | markedly increased | downregulated in a dose-dependent manner |  |  |  |
|  | 10.1 ± 0.24 | 11.7 ± 2 | 5 ± 0.24 | CCc1cccc(NC(=O)CNS(=O)(=O)c2ccc(-n3c(SCC(=O)Nc4cccc(CC)c4)nc4c(OC)cccc4c3=O)cc2)c1 [Compound 4f, N-(3-ethylphenyl)-2-((3-(4-(N-(2-((3-ethylphenyl)amino)-2-oxoethyl)sulfamoyl)-phe-nyl)-8-methoxy-4-oxo-3,4-dihydroquinazolin-2yl)thio)acetamide] |  |  |  | 1.14 | 1.2 | 1.5 | markedly increased | downregulated in a dose-dependent manner | 15.4 ± 0.28 | 31.05 ± 1.06 | 52.4 ± 0.28 |
